From publication PMC9395382 (2022)

Key:
[1] = system: d(AT)10 (DNA, duplex) ATATATATATATATATATAT; assay: fluorescent indicator displacement; conditions: Na+ (10 mM sodium phosphate); pH 7.0, 25 °C; DAPI displaced; DNA 20 μM bp; dye 0.5–50 μM
[2] = system: d(GC)10 (DNA, duplex) GCGCGCGCGCGCGCGCGCGC; assay: fluorescent indicator displacement; conditions: Na+ (10 mM sodium phosphate); pH 7.0, 25 °C; EtBr displaced; DNA 20 μM bp; dye 0.5–50 μM
[3] = system: dsDNA (DNA, duplex) CGCGGCGTACAGTGATCTACCATGCCCTGG/CCAGGGCATGGTAGATCACTGTACGCCGCG; assay: fluorescence titration, modified McGhee-von Hippel fit; conditions: Na+ (10 mM sodium phosphate), pH 7.0, dye 2 μM, DNA in bp, per base
[4] = system: dsDNA (DNA, duplex) CGCGGCGTACAGTGATCTACCATGCCCTGG/CCAGGGCATGGTAGATCACTGTACGCCGCG; assay: fluorescence enhancement; conditions: Na+ (10 mM sodium phosphate), pH 7.0, 25 °C, dye 2 μM, DNA 1 μM

Row | Compound | binding [1] | binding [2] | further results
1 | CCN(CC)c1ccc(/C=C/c2cc[n+](C)c3ccccc23)c(OCCCC[N+](C)(C)C)c1 | yes | yes | Kb ([3]; n = 2.1 bp per dye): 245000 M⁻¹
2 | CCN(CC)c1ccc(/C=C/c2cc[n+](C)c3ccccc23)cc1 | yes | yes | Kb ([3]; n = 2.8 bp per dye): 70000 M⁻¹
3 | CCN(CC)c1ccc(/C=C/c2cc[n+](C)cc2)c(OCCCC[N+](C)(C)C)c1 | yes | – | Kb ([3]; n = 4.0 bp per dye): 141000 M⁻¹
4 | CCN(CC)c1ccc(/C=C/c2cc[n+](C)cc2)c(OCCC[N+](C)(C)C)c1 | – | – | binding ([4]; F/F0 54.8): yes
5 | CCN(CC)c1ccc(/C=C/c2cc[n+](C)cc2)c(OCC[N+](C)(C)C)c1 | – | – | binding ([4]; F/F0 60.5): yes
6 | CCN(CC)c1ccc(/C=C/c2cc[n+](C)cc2)cc1 | yes | – | Kb ([3]; n = 4.4 bp per dye): 10000 M⁻¹
7 | CCN(CC)c1ccc(/C=C/c2sc3ccccc3[n+]2C)c(OCCCC[N+](C)(C)C)c1 | yes | yes | Kb ([3]; n = 2.5 bp per dye): 121000 M⁻¹
8 | CCN(CC)c1ccc(/C=C/c2sc3ccccc3[n+]2C)cc1 | yes | yes | Kb ([3]; n = 2.5 bp per dye): 35000 M⁻¹
9 | COc1ccc(/C=C/c2sc3ccccc3[n+]2C)c(OCCCC[N+](C)(C)C)c1 | yes | yes | binding ([4]; F/F0 10.9): yes
